From paper PMC6768041 (Chemistry Central Journal, 2018)

What was measured:
MAO-B = conditions: at high concentrations 100 µM; cited from earlier work
hMAO-A [1] = biological target: T1, hMAO-A (Homo sapiens, UniProt P21397); test: hMAO-A inhibition, Amplex Red fluorometric assay; assay type: biochemical; conditions: for Selectivity index: IC50 (MAO-A)/IC50 (MAO-B); for IC50: recombinant hMAO-A, p-tyramine substrate, mean SEM;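 as to all read-outs here: recombinant human MAO-A and MAO-B from baculovirus-infected insect cell microsomes, H2O2 formation detected fluorometrically via Amplex Red with horseradish peroxidase, background from enzyme-free wells subtracted, distilled water negative control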
T1 construct: host or cells: insect cells (BTI-TN-5B14), recombinant baculovirus
T1 sequence (P21397 1-527): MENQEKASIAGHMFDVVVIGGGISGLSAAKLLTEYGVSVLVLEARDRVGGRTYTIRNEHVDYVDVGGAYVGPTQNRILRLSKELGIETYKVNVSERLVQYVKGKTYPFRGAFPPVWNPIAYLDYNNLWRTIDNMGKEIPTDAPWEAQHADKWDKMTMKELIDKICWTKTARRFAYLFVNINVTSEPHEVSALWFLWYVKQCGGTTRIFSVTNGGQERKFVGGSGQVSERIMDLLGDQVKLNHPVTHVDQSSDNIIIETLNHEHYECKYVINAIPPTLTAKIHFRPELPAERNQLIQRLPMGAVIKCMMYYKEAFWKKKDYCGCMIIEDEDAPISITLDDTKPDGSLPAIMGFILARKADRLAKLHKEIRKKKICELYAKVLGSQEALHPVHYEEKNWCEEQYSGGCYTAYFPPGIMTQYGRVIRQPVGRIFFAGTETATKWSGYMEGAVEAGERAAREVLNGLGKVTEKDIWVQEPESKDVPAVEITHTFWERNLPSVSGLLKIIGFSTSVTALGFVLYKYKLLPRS
Description: (§3) The biological hMAO activity evaluation of the test drugs was examined by quantifying their action on the generation of H2O2 by p-tyramine (general substrate for hMAO-B and hMAO-A), utilizing the Amplex Red MAO assay kit (Sigma USA) and MAO isoforms (microsomal) obtained from insect cells (BTI-TN-5B14) expressed as recombinant baculovirus consisting cDNA probes for hMAO-A or hMAO-B. Reactions were monitored by thin layer chromatography TLC executed over silica gel precoated plates (0.25 mm) purchased from Merck, envisioned of single spots was carried in iodine and UV chambers, in mobile media TLC- Benzene:Chloroform (7:3).
(§4) All synthesized compounds were evaluated for their capability to inhibit the MAO-A and MAO-B isoforms of human MAO by a fluorometric method. The MAO inhibitory property of the test compounds was examined with the recombinant human enzymes using an Amplex Red Monoamine Oxidase Assay Kit (Sigma USA). The incessant peroxidase-linked photometric assay was performed on the fluorometer. […] Distilled water was used as a negative control. In brief, 0.1 mL of sodium phosphate buffer (0.05 M, pH 7.4) with the test new compounds/reference inhibitors in different concentrations and sufficient quantity of recombinant hMAO-A or hMAO-B requisite and in step to complete our investigational protocol with the equal reaction velocity, (hMAO-A: 1.1 mg protein; explicit activity: 150 nmol of p-tyramine oxidized to p-hydroxyphenylacetaldehyde/min/mg protein; hMAO-B: 7.5 mg protein; explicit activity: 22 nmol of p-tyramine changed/min/mg protein) were incubated for 15 min at 37 °C, placed in the dark fluorometric compartment. After incubation, the effect was attained through the addition of 200 mM Amplex Red reagent (final concentrations), 1 mM p-tyramine, and 1 U/mL horseradish peroxidase. Finally, the generation of hydrogen peroxide and, subsequently, of resorufin was measured at 37 °C in fluorescence reader (λemission, 585 nm, λexcitation, 530 nm) after 15 min, by the time fluorescence amplified linearly. All the control experiments were performed concurrently by changing the reference inhibitors and test compounds with suitable dilutions in the solvents. Moreover, the activity of abovementioned evaluated compounds to alter the fluorescence produced in the combination reaction by (e.g. for reacting with Amplex Red reagent directly) non-enzymatic inhibition was identified by addition of these compounds to solutions having just the Amplex Red reagent in a sodium phosphate buffer. […] The fluorescence reading was computed by subtraction of the background activity and was evaluated from wells with all components not including the hMAO isoforms that was substituted by a sodium phosphate buffer solution. All data was processed in Microsoft Excel, to calculate IC50 values.

hMAO-B [2] = biological target: T2, hMAO-B (Homo sapiens, UniProt P27338); test: hMAO-B inhibition, Amplex Red fluorometric assay; assay type: biochemical; conditions: recombinant hMAO-B, p-tyramine substrate; mean SEM
T2 construct: host or cells: insect cells (BTI-TN-5B14), recombinant baculovirus
T2 sequence (P27338 1-520): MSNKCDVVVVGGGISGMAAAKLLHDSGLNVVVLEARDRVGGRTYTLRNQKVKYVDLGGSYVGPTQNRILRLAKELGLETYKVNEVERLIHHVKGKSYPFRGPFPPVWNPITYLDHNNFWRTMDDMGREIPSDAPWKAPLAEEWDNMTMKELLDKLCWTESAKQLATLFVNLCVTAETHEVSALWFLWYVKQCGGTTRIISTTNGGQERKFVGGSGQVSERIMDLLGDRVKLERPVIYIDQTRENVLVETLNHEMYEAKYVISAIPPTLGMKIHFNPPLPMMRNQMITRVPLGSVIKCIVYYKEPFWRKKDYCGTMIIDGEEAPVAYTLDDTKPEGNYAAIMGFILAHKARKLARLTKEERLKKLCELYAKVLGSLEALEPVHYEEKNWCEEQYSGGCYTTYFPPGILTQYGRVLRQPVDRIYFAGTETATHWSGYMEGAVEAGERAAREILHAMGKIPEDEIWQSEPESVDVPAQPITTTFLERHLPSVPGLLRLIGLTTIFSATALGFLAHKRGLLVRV
Description: as §3, §4

[3] = DPPH radical scavenging assay; conditions: mean ± SEM, n = 3
Method: DPPH (2,2-diphenyl-1-picryl-hydrazyl-hydrate) free radical process is an antioxidant assay based on electron-transfer that turns violet color in ethanol. The antioxidant activity was based on free radical scavenging effect towards stable DPPH• radical upon spectrophotometric reaction according to the method reported in the literature. Briefly, solutions of synthesized compounds were prepared in fifty milliliters of various concentrations (25, 50, 75, and 100) µg/mL dissolved in methanol, was added to 5 mL of a 0.004% methanol solution of DPPH. The stock solution was prepared with 0.01% DPPH• in ethanol/water (1:1). While sample solutions were prepared as 5 mL DPPH• solution was mixed with 5 mL ascorbic acid solution then shaken vigorously and kept in the dark at 37 °C. The samples were incubated at the 37 °C temperature for 30 min in the dark chamber subsequently, absorbance was measured. The marketable recognized antioxidant, ascorbic acid was utilized for contrast or as a positive control. Initially, the blank spectrum for ethanol/water was recorded subsequently the spectrophotometric titration was carried out with various concentrations of synthesized compounds. The absorbance was recorded at 517 nm with UV/Vis Epoch ELISA reader, and antioxidant activity was measured as a decrease in absorbance of DPPH•. The IC50 values of free radical DPPH, based on control reading were calculated by the following equation. %inhibition of DPPH radical=Abr-Aar/Abr×100 where Abr is the absorbance prior to reaction and Aar is the absorbance after reaction with DPPH•.

[4] = Hydrogen peroxide scavenging (H2O2) assay; conditions: mean ± SEM, n = 3; read-out: H2O2 radical scavenging IC50
Method: Amongst the reactive oxygen species (ROS), H2O2 is an essential radical as even though it is not lethal of its own accord, but can be changed to further even highly toxic radicals, for instance, OH^• by hypochlorous acid or Fenton reaction by the oxidases enzymes. A solution of H2O2 (40 µM) was added in phosphate buffer saline ([…] pH 7.4). Different quantities of test and references compounds in DMSO were added to 2 mL of hydrogen peroxide solution in buffer solution. Subsequently, upon to 10 min, the absorbance was calculated at 230 nm against a blank solution including phosphate buffer without H2O2 [31]. The percentage of scavenging H2O2 was estimated by the formula in this way: %ScavengingH2O2=AS-AT/Ai×100 where AS is the absorbance of control and AT is the absorbance of the test.

MAO-A = conditions: cited from earlier work
monoamine oxidase-B = conditions: cited from earlier work
hMAO-B [5] = biological target: T2, hMAO-B; test: Enzyme kinetics of MAO-B (Lineweaver–Burk plots); assay type: biochemical; conditions: several inhibitor concentrations, tyramine substrate
Method: (§1) A set of Lineweaver–Burk plots was constructed in the presence and absence of different concentrations of compound 7 and 5 for hMAO-A and hMAO-B respectively. The graph comprises of five plots, every plot raised by quantifying MAO-B and MAO-A catalytic rate at various concentrations of substrate (0.5–5.0 µM).
(§2) Kinetic constants of steady-state (Vmax, maximum rate, and Km, Michaelis constant,) were measured by studying the effects of substrate concentration on the primary rate of reaction of MAO-A or MAO-B in absence and presence of compounds at diverse concentrations. To examine the mode of action by synthesized derivatives all of them were solubilized in dimethyl sulfoxide, with the concentration of 1%, and utilized in a wide concentration range. Construction of Lineweaver–Burk plots illustrated the mode of MAO inhibition. Selectivity index SI (Ki (MAO-A)/Ki (MAO-B)) was also computed. Enzyme kinetics for the interaction of the compounds with the MAO enzymes was computed on the GraphPad Prism 7 software.

hMAO-A [6] = biological target: T1, hMAO-A; test: Enzyme kinetics of MAO-A (Lineweaver–Burk plots); assay type: biochemical; conditions: tyramine substrate
Method: as §1, §2

rMAO-B = conditions: cited from earlier work
hMAO-A [7] = biological target: T1, hMAO-A; conditions: cited from earlier work
rMAO-A = conditions: cited from earlier work

Structure (SMILES) | Selectivity index (hMAO-A [1]) | IC50 (hMAO-A [1]) | IC50 (hMAO-B [2]) | IC50 [3] | IC50 [4] | melting point | further results
O=C(/C=C/c1ccc(O)c(O)c1)OCCc1ccccc1 [CAPE, caffeic acid phenethyl ester] | – | – | – | – | – | – | MAO-B inhibition in words (MAO-B): inhibiting MAO-B
O=C(O)/C=C/c1ccc(O)c(O)c1 [Caffeic acid, reference compound] | 0.512 | 11.72 ± 0.044 µM | 22.88 ± 0.009 µM | 9.679 ± 0.013 µM | 8.868 ± 0.011 µM | – | IC50 (MAO-A): > 1000 µM; Inhibition of MAO-A activity (MAO-A): up to 40.4%; Monoamine oxidase-B inhibition in words (monoamine oxidase-B): did not produce significant monoamine oxidase-B inhibition
O=C(/C=C/c1ccc(O)c(O)c1)Nc1ccc([N+](=O)[O-])cc1Cl [Compound 1, (E)-N-(2-chloro-4-nitrophenyl)-3-(3,4-dihydroxyphenyl)acrylamide] | 0.209 | 8.87 ± 0.005 µM | 42.34 ± 0.077 µM | 6.39 ± 0.007 µM | 6.292 ± 0.007 µM | 230 to 231 °C | –
O=C(/C=C/c1ccc(O)c(O)c1)Nc1ccc(Cl)cc1[N+](=O)[O-] [Compound 2, (E)-N-(4-chloro-2-nitrophenyl)-3-(3,4-dihydroxyphenyl)acrylamide] | 0.191 | 8.51 ± 0.017 µM | 44.42 ± 0.014 µM | 8.09 ± 0.042 µM | 8.544 ± 0.015 µM | 200 to 202 °C | –
O=C(/C=C/c1ccc(O)c(O)c1)Nc1ccc(Br)cc1 [Compound 3, (E)-N-(4-bromophenyl)-3-(3,4-dihydroxyphenyl)acrylamide] | 0.838 | 17.72 ± 0.006 µM | 21.14 ± 0.025 µM | 13.56 ± 0.003 µM | 12.56 ± 0.021 µM | – | –
O=C(/C=C/c1ccc(O)c(O)c1)Nc1cccc(F)c1 [Compound 4, (E)-3-(3,4-dihydroxyphenyl)-N-(3-fluorophenyl)acrylamide] | 0.319 | 18.47 ± 0.007 µM | 57.88 ± 0.029 µM | 9.19 ± 0.001 µM | 9.486 ± 0.017 µM | – | –
O=C(/C=C/c1ccc(O)c(O)c1)Nc1cccc2ccccc12 [Compound 5, (E)-3-(3,4-dihydroxyphenyl)-N-(naphthalen-1-yl)acrylamide] | 4.653 | 50.26 ± 0.035 µM | 10.8 ± 0.024 µM | 20.8 ± 0.003 µM | 17.64 ± 0.005 µM | 176 to 176.3 °C | Vmax in Lineweaver–Burk plot (hMAO-B) (hMAO-B [5]): same Vmax value at several concentrations
COc1cc(C=O)ccc1OC(=O)/C=C/c1ccc(O)c(O)c1 [Compound 6, (E)-4-formyl-2-methoxyphenyl 3-(3,4-dihydroxyphenyl)acrylate] | 1.252 | 20.36 ± 0.002 µM | 16.25 ± 0.035 µM | 11.34 ± 0.001 µM | 21.69 ± 0.034 µM | 150 to 151 °C | MAO isoform selectivity in words (hMAO-A [1]; hMAO-A vs hMAO-B): selective for hMAO-B
C=CCc1ccc(OC(=O)/C=C/c2ccc(O)c(O)c2)c(OC)c1 [Compound 7, (E)-4-allyl-2-methoxyphenyl 3-(3,4-dihydroxyphenyl)acrylate] | 0.291 | 7.03 ± 0.022 µM | 24.14 ± 0.017 µM | 11.22 ± 0.012 µM | 12.78 ± 0.024 µM | 161 to 161.7 °C | Mode of inhibition (hMAO-A) (hMAO-A [6]): competitive inhibition mode
O=c1oc2c(O)c(O)cc3c(=O)oc4c(O)c(O)cc1c4c23 [Ellagic acid] | – | – | – | – | – | – | MAO inhibition value rMAO-B (rMAO-B): 412.24 nM rMAO-B
O=C(O)c1cc(O)c(O)c(O)c1 [Gallic acid] | – | – | – | – | – | – | MAO inhibition value hMAO-A (hMAO-A [7]): 9.49 ± 0.83 hMAO-A µM
O=C(O)c1ccc(O)c(O)c1 [Protocatechuic acid] | – | – | – | – | – | – | MAO inhibition value rMAO-A (rMAO-A): 300 µM; MAO inhibition value rMAO-B (rMAO-B): 2411 µM
O=C(O)/C=C/c1ccccc1 [Trans-Cinnamic acid] | – | – | – | – | – | – | MAO inhibition value rMAO-A (rMAO-A): 6.47 ± 0.73 µM; MAO inhibition value rMAO-B (rMAO-B): 1.21 ± 0.071 µM
O=C(/C=C/c1ccc(O)c(O)c1)O[C@H](Cc1ccc(O)c(O)c1)C(=O)O [rosmarinic acid] | – | – | – | – | – | – | Monoamine oxidase-B inhibition in words (monoamine oxidase-B): did not produce significant monoamine oxidase-B inhibition

More lines, main results first:

Selectivity index (hMAO-A [1]) | IC50 (hMAO-A [1]) | IC50 (hMAO-B [2]) | IC50 [3] | IC50 [4] | melting point | Structure (SMILES) | further results
0.724 | 19.75 ± 0.066 µM | 27.26 ± 0.072 µM | 11.94 ± 0.025 µM | 11.88 ± 0.008 µM | 182 to 182.6 °C | Cc1ccc(C(C)C)cc1OC(=O)/C=C/c1ccc(O)c(O)c1 [Compound 8, (E)-5-isopropyl-2-methylphenyl 3-(3,4-dihydroxyphenyl)acrylate] | –
0.379 | 10.33 ± 0.012 µM | 27.25 ± 0.004 µM | 10.57 ± 0.004 µM | 9.907 ± 0.014 µM | 198 to 198.4 °C | O=C(/C=C/c1ccc(O)c(O)c1)Oc1cccc(O)c1 [Compound 9, (E)-3-hydroxyphenyl 3-(3,4-dihydroxyphenyl)acrylate] | –
1.947 | 25.22 ± 0.015 µM | 12.95 ± 0.046 µM | 11.34 ± 0.078 µM | 11.39 ± 0.042 µM | – | CCNC(=O)/C=C/c1ccc(O)c(O)c1 [Compound 10, (E)-3-(3,4-dihydroxyphenyl)-N-ethylacrylamide] | –
1.233 | 24.34 ± 0.011 µM | 21.48 ± 0.056 µM | 12.95 ± 0.031 µM | 11.34 ± 0.045 µM | 176 to 176.9 °C | O=C(/C=C/c1ccc(O)c(O)c1)Oc1ccc2ccccc2c1 [Compound 11, (E)-naphthalen-2-yl 3-(3,4-dihydroxyphenyl)acrylate] | –
0.453 | 22.02 ± 0.018 µM | 48.54 ± 0.077 µM | 15.37 ± 0.054 µM | 14.65 ± 0.026 µM | – | CC1CCC(C(C)C)C(OC(=O)/C=C/c2ccc(O)c(O)c2)C1 (stereo not shown) [Compound 12, (E)-2-isopropyl-5-methylcyclohexyl 3-(3,4-dihydroxyphenyl)acrylate] | –
– | – | – | – | 8.12 ± 0.082 µM | – | O=C1O[C@H]([C@@H](O)CO)C(O)=C1O [L-Ascorbic acid, reference compound] | –
